{"source": "patent US6849645B2", "about": "“Method of increased bioavailability of nutrients and pharmaceutical preparations with tetrahydropiperine and its analogues and derivatives” (priority 2000, dated 2005)", "assay": "Franz diffusion cell, in vitro transdermal permeation of Forskolin with or without tetrahydropiperine", "assay_type": "in vitro ADME, rat", "settings": "for Increase in release (% of Forskolin): with THP vs control", "method": "In vitro permeation studies of Forskholin, a diterpenoid compound which has various therapeutic effects (Bronchodilation—used in Asthma, prevents platelet aggregation, anti hypertensive, anti glaucoma and anti-inflammatory) was carried out. Fabricated Franz diffusion cells of capacity 67 and 69 ml were used for the study. Freshly excised rat abdominal skin was used for the permeation studies.\nSolutions Used in the Study • a) 2.5% Forskolin in methanol. • b) 0.05% Tetrahydropiperine in 2.5% Forskolin in methanol. • c) 0.1% Tetrahydropiperine in 2.5% Forskolin in methanol. Procedure\nFreshly excised rat abdominal […] was mounted on the Franz diffusion Cell, the outer layer of the skin facing the donor compartment. The receptor fluid was maintained at 35° C. using a thermostatic magnetic stirrer.\nThe study was conducted by replacing the medium in the receptor compartment with methanol instead of phosphate buffer. In both the receptor and donor compartment methanol was used as the medium in the permeation studies.\n(§1) In the donor compartment 2 ml methanol containing 50 mg of Forskolin and tetrahydropiperine (5% of Forskolin conc.) was taken. Receptor compartment consisted of 69 ml of methanol maintained at 35° C. Permeation study was carried out for a period of 1 hr. Samples were withdrawn at 15, 30 and 60 minutes intervals and the amount of Forskholin present was analyzed by HPLC.\nas §1, with “Forskholin” for “Forskolin and tetrahydropiperine (5% of Forskolin conc.)”, “65” for “69”, “hour.” for “hr.”"}
{"smiles": "O=C(CCCCc1ccc2c(c1)OCO2)N1CCCCC1", "note": "[Tetrahydropiperine, 1-[5-(1,3-Benzodioxol-5 yl)-1-oxo-pentanoyl]-Piperidine]", "values": [{"measurement": "permeation of Forskolin", "setting": "Tetrahydropiperine 5% of Forskolin concentration", "value": "enhanced"}, {"measurement": "permeation of Forskolin", "setting": "tetrahydropiperine 2% of Forskolin concentration", "value": "enhanced permeation was not observed"}, {"measurement": "Increase in release (% of Forskolin)", "setting": "15 min", "value": 28.12, "unit": "%"}, {"measurement": "Increase in release (% of Forskolin)", "setting": "30 min", "value": 39.25, "unit": "%"}, {"measurement": "Increase in release (% of Forskolin)", "setting": "60 min", "value": 5.09, "unit": "%"}]}
